Data on two compounds can be found in ChEMBL document CHEMBL4622979, “Non-rigid Diarylmethyl Analogs of Baloxavir as Cap-Dependent Endonuclease Inhibitors of Influenza Viruses” (J Med Chem, 2020).

Series [1] in a line: AUClast in CD1 mouse brain assessed as baloxavir acid level at 15 mg/kg, po administered as single dose measured up to 24 hrs by LC-MS/MS analysis. Type of series: ADME, organism-based. Particulars: in vivo.
Series [2] is described as follows: Cmax in CD1 mouse plasma assessed as baloxavir acid level at 15 mg/kg, po administered as single dose by LC-MS/MS analysis. Particulars: in vivo. Type of series: ADME, organism-based. Also noted: dose 15 mg/kg, route oral.
Series [3] in a line: Half life in CD1 mouse lung assessed as baloxavir acid level at 15 mg/kg, po administered as single dose measured up to 24 hrs by LC-MS/MS analysis. Type of series: ADME, organism-based. Particulars: in vivo.
Series [4] is described as follows: Cmax in CD1 mouse kidney assessed as baloxavir acid level at 15 mg/kg, po administered as single dose measured up to 24 hrs by LC-MS/MS analysis. Particulars: in vivo. More on the design: dose 15 mg/kg, route oral. Type of series: ADME, organism-based.
Series [5] can be described thus: Elimination rate constant in CD1 mouse liver assessed as baloxavir acid level at 15 mg/kg, po administered as single dose measured up to 24 hrs by LC-MS/MS analysis. Type of series: ADME, organism-based. Particulars: in vivo.
A short description of series [6]: Tmax in CD1 mouse small intestine assessed as baloxavir acid level at 15 mg/kg, po administered as single dose measured up to 24 hrs by LC-MS/MS analysis. Type of series: ADME, organism-based. As to conditions: in vivo.
The nature of series [7]: AUCinfinity in CD1 mouse plasma assessed as baloxavir acid level at 15 mg/kg, po administered as single dose measured up to 24 hrs by LC-MS/MS analysis. Type of series: ADME, organism-based. Also noted: dose 15 mg/kg, route oral, time infinity. Particulars: in vivo.
Series [8] in a line: Cmax in CD1 mouse spleen assessed as baloxavir acid level at 15 mg/kg, po administered as single dose measured up to 24 hrs by LC-MS/MS analysis. Also noted: dose 15 mg/kg, route oral. The series is classed as ADME, organism-based. As to conditions: in vivo.
Series [9] is described as follows: Elimination rate constant in CD1 mouse kidney assessed as baloxavir acid level at 15 mg/kg, po administered as single dose measured up to 24 hrs by LC-MS/MS analysis. Type of series: ADME, organism-based. Particulars: in vivo.
Series [10] is described as follows: Elimination rate constant in CD1 mouse muscle assessed as (12aR)-12-(Diphenylmethyl)-7-hydroxy-3,4,12,12a-tetrahydro-1H-[1,4]oxazino[3,4-c]pyrido[2,1-f ][1,2,4]triazine-6,8-dione level at 15 mg/kg, po administered as single dose measured up to 24 hrs by LC-MS/MS analysis. The series is classed as ADME, organism-based, Muscle tissue. Particulars: in vivo.
Series [11] is described as follows: Cmax in CD1 mouse kidney assessed as (12aR)-12-(Diphenylmethyl)-7-hydroxy-3,4,12,12a-tetrahydro-1H-[1,4]oxazino[3,4-c]pyrido[2,1-f ][1,2,4]triazine-6,8-dione level at 15 mg/kg, po administered as single dose measured up to 24 hrs by LC-MS/MS analysis. Type of series: ADME, organism-based. More on the design: dose 15 mg/kg, route oral. Particulars: in vivo.
Series [12] is described as follows: Stability in human plasma assessed as parent compound remaining at 1 uM measured after 4 hrs by LC-MS/MS analysis. Type of series: ADME, cell-free. As to conditions: read-out: Stability.
Series [13] is described as follows: Tmax in CD1 mouse liver assessed as (12aR)-12-(Diphenylmethyl)-7-hydroxy-3,4,12,12a-tetrahydro-1H-[1,4]oxazino[3,4-c]pyrido[2,1-f ][1,2,4]triazine-6,8-dione level at 15 mg/kg, po administered as single dose measured up to 24 hrs by LC-MS/MS analysis. The series is classed as ADME, organism-based. As to conditions: in vivo.
Series [14] is described as follows: Ratio of AUClast in CD1 mouse blood to plasma assessed as (12aR)-12-(Diphenylmethyl)-7-hydroxy-3,4,12,12a-tetrahydro-1H-[1,4]oxazino[3,4-c]pyrido[2,1-f ][1,2,4]triazine-6,8-dione level at 15 mg/kg, po administered as single dose measured up to 24 hrs by LC-MS/MS analysis. The series is classed as ADME, organism-based. As to conditions: in vivo.
The nature of series [15]: MRTlast in CD1 mouse blood assessed as (12aR)-12-(Diphenylmethyl)-7-hydroxy-3,4,12,12a-tetrahydro-1H-[1,4]oxazino[3,4-c]pyrido[2,1-f ][1,2,4]triazine-6,8-dione level at 15 mg/kg, po administered as single dose measured up to 24 hrs by LC-MS/MS analysis. The series is classed as ADME, organism-based. As to conditions: in vivo.
Series [16] is described as follows: Cmax in CD1 mouse plasma assessed as (12aR)-12-(Diphenylmethyl)-7-hydroxy-3,4,12,12a-tetrahydro-1H-[1,4]oxazino[3,4-c]pyrido[2,1-f ][1,2,4]triazine-6,8-dione level at 15 mg/kg, po administered as single dose by LC-MS/MS analysis. Type of series: ADME, organism-based. Also noted: dose 15 mg/kg, route oral. As to conditions: in vivo.
The nature of series [17]: AUCinfinity in CD1 mouse small intestine assessed as (12aR)-12-(Diphenylmethyl)-7-hydroxy-3,4,12,12a-tetrahydro-1H-[1,4]oxazino[3,4-c]pyrido[2,1-f ][1,2,4]triazine-6,8-dione level at 15 mg/kg, po administered as single dose measured up to 24 hrs by LC-MS/MS analysis. Particulars: in vivo. More on the design: dose 15 mg/kg, route oral, time infinity. The series is classed as ADME, organism-based.

The nature of series [18]: AUCinfinity in CD1 mouse heart assessed as (12aR)-12-(Diphenylmethyl)-7-hydroxy-3,4,12,12a-tetrahydro-1H-[1,4]oxazino[3,4-c]pyrido[2,1-f ][1,2,4]triazine-6,8-dione level at 15 mg/kg, po administered as single dose measured up to 24 hrs by LC-MS/MS analysis. Particulars: in vivo. Type of series: ADME, organism-based. Also noted: dose 15 mg/kg, time infinity, route oral.

Series [19] is described as follows: Tmax in CD1 mouse lung assessed as (12aR)-12-(Diphenylmethyl)-7-hydroxy-3,4,12,12a-tetrahydro-1H-[1,4]oxazino[3,4-c]pyrido[2,1-f ][1,2,4]triazine-6,8-dione level at 15 mg/kg, po administered as single dose measured up to 24 hrs by LC-MS/MS analysis. The series is classed as ADME, organism-based. As to conditions: in vivo.
Series [20] can be described thus: AUClast in CD1 mouse heart assessed as (12aR)-12-(Diphenylmethyl)-7-hydroxy-3,4,12,12a-tetrahydro-1H-[1,4]oxazino[3,4-c]pyrido[2,1-f ][1,2,4]triazine-6,8-dione level at 15 mg/kg, po administered as single dose measured up to 24 hrs by LC-MS/MS analysis. Type of series: ADME, organism-based. Particulars: in vivo.
Series [21] in a line: Half life in CD1 mouse liver assessed as (12aR)-12-(Diphenylmethyl)-7-hydroxy-3,4,12,12a-tetrahydro-1H-[1,4]oxazino[3,4-c]pyrido[2,1-f ][1,2,4]triazine-6,8-dione level at 15 mg/kg, po administered as single dose measured up to 24 hrs by LC-MS/MS analysis. The series is classed as ADME, organism-based. As to conditions: in vivo.
The nature of series [22]: AUCinfinity in CD1 mouse blood assessed as (12aR)-12-(Diphenylmethyl)-7-hydroxy-3,4,12,12a-tetrahydro-1H-[1,4]oxazino[3,4-c]pyrido[2,1-f ][1,2,4]triazine-6,8-dione level at 15 mg/kg, po administered as single dose measured up to 24 hrs by LC-MS/MS analysis. Type of series: ADME, organism-based. Also noted: dose 15 mg/kg, time infinity, route oral. As to conditions: in vivo.

Series [23] is described as follows: Elimination rate constant in CD1 mouse trachea assessed as (12aR)-12-(Diphenylmethyl)-7-hydroxy-3,4,12,12a-tetrahydro-1H-[1,4]oxazino[3,4-c]pyrido[2,1-f ][1,2,4]triazine-6,8-dione level at 15 mg/kg, po administered as single dose measured up to 24 hrs by LC-MS/MS analysis. Type of series: ADME, organism-based. As to conditions: in vivo.
Series [24] can be described thus: Tmax in CD1 mouse blood assessed as (12aR)-12-(Diphenylmethyl)-7-hydroxy-3,4,12,12a-tetrahydro-1H-[1,4]oxazino[3,4-c]pyrido[2,1-f ][1,2,4]triazine-6,8-dione level at 15 mg/kg, po administered as single dose measured up to 24 hrs by LC-MS/MS analysis. Type of series: ADME, organism-based. Particulars: in vivo.
Series [25] is described as follows: Acute toxicity in CD1 mouse assessed as effect on kidney at 2000 mg/kg, po measured after 2 weeks by macroscopic analysis. The series is classed as organism-based. Particulars: in vivo, 336 h.

On to `COC(=O)OCOc1c2n(ccc1=O)N([C@@H]1c3ccccc3SCc3c1ccc(F)c3F)[C@@H]1COCCN1C2=O` [BALOXAVIR MARBOXIL], for which the AUClast in series [1] came to 317 ng·h/g. For the same compound, the peak concentration (Cmax) amounted to 141 ng/mL in [2], 2998 ng/g in series [4] and 388 ng/g in series [8]. In [3], the t1/2 came out at 204 min. Further, the Kel in series [5] worked out at 0.27 h⁻¹; in [9], 0.21 h⁻¹. Moreover, the Tmax in [6] was 30 min. For the same compound, in series [7], the AUC turned out to be 558 ng·h/mL.

As to `COC(=O)OCOc1c2n(ccc1=O)N(C(c1ccccc1)c1ccccc1)[C@@H]1COCCN1C2=O`, the Kel in series [10] was found to be 0.4 h⁻¹; in [23] it was 0.14 h⁻¹. Besides, the highest concentration (Cmax) in series [11] turned out to be 5260 ng/g; in series [16] it was 875 ng/mL. Further, in series [12], the remaining at 4 h, 1 µM is 8.1%. The time of peak concentration (Tmax) in series [13], in [19] and in [24] was 30 min throughout. The “Ratio AUC” value in [14] is given as 0.82. Further, the MRTlast in [15] was determined as 107 min. Moreover, the AUC was found to be 44252 ng·h/g in series [17], 11444 ng·h/g in series [18] and 2861 ng·h/g in series [22]. In addition, the AUClast in [20] came to 11111 ng·h/g. Besides, the t1/2 in series [21] stood at 140 min. The Activity entry in series [25] was “Non-Toxic”.

In general, Cmax refers to the peak of the concentration-time curve. For orientation: Tmax means the time from dosing to the highest level.
